From US20100160359A1, “Modulators of Metabolism and the Treatment of Disorders Related Thereto” (ARENA PHARMACEUTICALS, INC., priority 2005, published 2010)
Converted amounts (≈) assume the structure as drawn.

Experiments:
[1] = target: CYP2C9 (Homo sapiens, UniProt P11712); assay: P450 inhibition screening assay, CYP2C9; format: in vitro ADME; details: cDNA expressed human enzyme, fluorescent substrate DBF; read-out: IC50 against the CYP2C9 enzyme
Procedure: (§1) The P450 inhibition screening assay was performed in 96-well microtiter plates by using cDNA expressed human enzymes (CYP1A2, 2C9, 2C19, 2D6 and 3A4). […] The enzymatic reaction was initiated by adding individual P450 enzymes pre-mixed with P450-specific fluorescent substrates, and stopped by adding acetonitrile (or NaOH for DBF assays) to the reaction mixture after incubation at 37° C. for a given amount of time. The fluorescence of metabolites was measured on a Biotek fluorescence reader. The results were expressed as inhibition percentage relative to the control (no test compound). IC50 values were estimated from the concentration response curve. […] Test compounds are classified into three categories based on their IC50 values.

[2] = target: T1, CYP1A2 (Homo sapiens, UniProt P05177); assay: P450 inhibition screening assay, CYP1A2; format: in vitro ADME; details: cDNA expressed human enzyme, fluorescent substrate CEC
T1 sequence (P05177 1-516): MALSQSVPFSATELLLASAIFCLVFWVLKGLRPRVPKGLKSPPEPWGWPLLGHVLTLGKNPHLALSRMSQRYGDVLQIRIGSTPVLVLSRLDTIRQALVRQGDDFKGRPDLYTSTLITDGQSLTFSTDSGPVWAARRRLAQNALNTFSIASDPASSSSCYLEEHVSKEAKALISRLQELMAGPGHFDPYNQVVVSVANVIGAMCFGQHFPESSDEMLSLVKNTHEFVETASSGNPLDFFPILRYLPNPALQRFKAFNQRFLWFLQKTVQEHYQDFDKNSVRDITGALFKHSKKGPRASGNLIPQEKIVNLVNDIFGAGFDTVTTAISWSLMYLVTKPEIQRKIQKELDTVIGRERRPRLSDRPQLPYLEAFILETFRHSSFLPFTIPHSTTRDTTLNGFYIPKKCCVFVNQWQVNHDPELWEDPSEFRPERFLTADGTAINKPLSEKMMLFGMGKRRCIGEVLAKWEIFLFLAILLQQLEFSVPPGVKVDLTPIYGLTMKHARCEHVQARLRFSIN
Procedure: as §1

[3] = target: CYP2D6 (Homo sapiens, UniProt P10635); assay: P450 inhibition screening assay, CYP2D6; format: in vitro ADME; details: cDNA expressed human enzyme, fluorescent substrate AMMC
Procedure: as §1

[4] = target: CYP3A4 (Homo sapiens, UniProt P08684); assay: P450 inhibition screening assay, CYP3A4; format: in vitro ADME; details: cDNA expressed human enzyme, fluorescent substrates
Procedure: as §1

[5] = target: CYP2C19 (Homo sapiens, UniProt P33261); assay: P450 inhibition screening assay, CYP2C19; format: in vitro ADME; details: cDNA expressed human enzyme, fluorescent substrate DBF
Procedure: as §1

[6] = Solubility determination in water (HPLC); format: physicochemical; details: thermodynamic from solid, about 25° C., equilibrated no less than 12 hours, read-out: aqueous solubility
Procedure: The vial contents were mixed for 30 seconds using a VWR mini vortexter followed by sonication (Branson 1510) for 1 minutes. Vials were placed into a constant temperature bath (i.e., about 25° C.) and allowed to equilibrate for no less than 12 hours. The resulting suspensions were transferred to eppendorf tubes each equipped with a 0.2 μm nylon filter (Costar 8168) and were centrifuged for 10 minutes at 14,000 rpms. The supernatant from each eppendorf tube was collected and diluted with HPLC grade acetonitrile with dilution factor of 200, 400 or 500. Each solution was analyzed by an HPLC method. […]
Quantification was effected by comparison of the HPLC peak area for each test solution with the peak area taken from a standard plot of concentration versus peak area for standards of known concentration. As is conventional, the standard concentrations for 4-[5-methyl-6-(2-methyl-pyridin-3-yloxy)-pyrimidin-4-yloxy]piperidine-1-carboxylic acid isopropyl ester were selected to fall within a linear range of concentration versus absorbance for the UV detector employed. […]

[7] = tested on: Male Sprague Dawley rats; assay: Oral glucose tolerance test (oGTT) in rats; format: in vivo; details: rat oGTT, dextrose 3 g/kg
Procedure: General Procedure—Oral Glucose Tolerance Test (oGTT)
Male Sprague Dawley rats (Harlan, San Diego, Calif.) weighing approximately 350-375 g were fasted for 16 hours and randomly grouped (n=6) to receive a RUP3 agonist at 0.3, 3 or 30 mg/kg. Compounds were delivered orally via a gavage needle (p.o., volume 2 mL/kg). At time 0, levels of blood glucose were assessed using a glucometer (Accu-Chek Advantage, Roche Diagnostics), and rats were administered either vehicle (20% hydroxypropyl-beta-cyclodextrin) or test compound. Thirty minutes after administration of test compound, levels of blood glucose were again assessed, and rats were administered dextrose orally at a dose of 3 g/kg. Blood glucose measurements were then taken 30 min, 60 min, and 120 min after this time.

Sequence of CYP2C19 (P33261 whole entry): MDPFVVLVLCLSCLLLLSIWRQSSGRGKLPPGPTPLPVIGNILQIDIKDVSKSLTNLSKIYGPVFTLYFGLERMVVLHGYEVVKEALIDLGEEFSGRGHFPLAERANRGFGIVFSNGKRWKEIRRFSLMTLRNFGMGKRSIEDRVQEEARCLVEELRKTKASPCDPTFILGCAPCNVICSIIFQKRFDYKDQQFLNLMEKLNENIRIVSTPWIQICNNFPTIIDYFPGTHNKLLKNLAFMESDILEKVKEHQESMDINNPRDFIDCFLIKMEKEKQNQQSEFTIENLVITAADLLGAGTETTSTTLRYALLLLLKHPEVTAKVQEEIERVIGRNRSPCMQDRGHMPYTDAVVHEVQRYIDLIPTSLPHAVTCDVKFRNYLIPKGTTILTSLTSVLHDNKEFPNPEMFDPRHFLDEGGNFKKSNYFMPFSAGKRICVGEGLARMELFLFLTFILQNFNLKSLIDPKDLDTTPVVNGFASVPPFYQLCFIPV
Sequence of CYP2C9 (P11712 whole entry): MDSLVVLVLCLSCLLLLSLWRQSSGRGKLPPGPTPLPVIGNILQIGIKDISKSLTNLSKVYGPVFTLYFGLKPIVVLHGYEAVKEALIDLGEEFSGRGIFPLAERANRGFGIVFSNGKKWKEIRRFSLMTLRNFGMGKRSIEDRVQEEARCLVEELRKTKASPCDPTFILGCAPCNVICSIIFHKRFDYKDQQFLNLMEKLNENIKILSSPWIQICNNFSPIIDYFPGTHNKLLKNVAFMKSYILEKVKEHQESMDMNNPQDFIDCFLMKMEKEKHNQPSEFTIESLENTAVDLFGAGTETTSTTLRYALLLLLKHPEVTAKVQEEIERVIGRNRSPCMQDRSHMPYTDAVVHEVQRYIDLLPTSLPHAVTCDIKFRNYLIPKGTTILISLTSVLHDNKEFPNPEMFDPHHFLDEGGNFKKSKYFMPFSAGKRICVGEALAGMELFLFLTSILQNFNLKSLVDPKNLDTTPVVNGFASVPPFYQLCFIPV
Sequence of CYP3A4 (P08684 whole entry): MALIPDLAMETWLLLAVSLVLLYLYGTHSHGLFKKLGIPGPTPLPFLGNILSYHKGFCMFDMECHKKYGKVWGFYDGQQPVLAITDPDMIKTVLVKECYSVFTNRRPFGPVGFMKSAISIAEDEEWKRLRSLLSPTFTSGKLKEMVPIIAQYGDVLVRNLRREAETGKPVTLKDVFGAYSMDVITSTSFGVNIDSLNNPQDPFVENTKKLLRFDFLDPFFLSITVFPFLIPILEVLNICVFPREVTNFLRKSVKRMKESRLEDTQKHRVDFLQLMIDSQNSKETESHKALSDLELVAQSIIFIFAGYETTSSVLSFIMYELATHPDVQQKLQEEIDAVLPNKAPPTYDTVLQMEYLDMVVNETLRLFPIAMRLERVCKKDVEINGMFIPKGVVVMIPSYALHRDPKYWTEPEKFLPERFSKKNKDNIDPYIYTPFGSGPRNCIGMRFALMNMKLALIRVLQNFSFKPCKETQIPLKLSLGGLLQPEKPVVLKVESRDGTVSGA
Sequence of CYP2D6 (P10635 whole entry): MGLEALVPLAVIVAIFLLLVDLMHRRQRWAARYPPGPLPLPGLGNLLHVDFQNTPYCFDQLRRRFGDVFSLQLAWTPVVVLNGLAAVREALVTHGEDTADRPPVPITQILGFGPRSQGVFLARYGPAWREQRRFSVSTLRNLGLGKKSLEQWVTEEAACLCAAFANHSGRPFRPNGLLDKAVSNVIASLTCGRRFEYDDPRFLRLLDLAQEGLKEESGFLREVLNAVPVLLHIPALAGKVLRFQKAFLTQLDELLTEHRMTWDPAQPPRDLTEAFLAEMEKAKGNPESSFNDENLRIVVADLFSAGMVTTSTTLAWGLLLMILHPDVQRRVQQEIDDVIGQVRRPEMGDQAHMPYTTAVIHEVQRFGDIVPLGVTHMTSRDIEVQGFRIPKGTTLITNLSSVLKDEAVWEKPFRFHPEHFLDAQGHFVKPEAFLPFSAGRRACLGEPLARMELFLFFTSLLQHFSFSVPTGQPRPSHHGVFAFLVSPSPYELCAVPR

In the case of `Cc1ncccc1Oc1ncnc(OC2CCN(C(=O)OC(C)C)CC2)c1C` [4-[5-methyl-6-(2-methyl-pyridin-3-yloxy)-pyrimidin-4-yloxy]-piperidine-1-carboxylic acid isopropyl ester], the IC50 [1] is reported as > 15 µM, the IC50 [2] is reported as > 40 µM and the IC50 [3] is reported as > 40 µM. The IC50 [4] was > 40 µM, the IC50 [5] was ~10 µM and the solubility [6] was ~40 mg/mL (≈ 104 mM). For the same molecule, the “Mean % Inhibition of Glucose Excursion” value ([7]; 0.3 mg/Kg p.o.) was 22%, the “Mean % Inhibition of Glucose Excursion” value ([7]; 3 mg/Kg p.o.) was 24% and the “Mean % Inhibition of Glucose Excursion” value ([7]; 30 mg/Kg p.o.) was 70%.
